Source: ChEMBL document CHEMBL1201862, “PubChem BioAssay data set” (2004)
The source made the active and inactive calls.

Tests used:
[1] = biological target: T1, Corticotropin-releasing factor receptor 2/Corticotropin-releasing factor-binding protein (Homo sapiens, UniProt P24387+Q13324); assay: Dose Response confirmation of uHTS hits for small molecule antagonists of the CRF-binding protein and CRF-R2 receptor complex.; format: functional; details: read-out: IC50_Mean
T1 sequence (Q13324 whole entry): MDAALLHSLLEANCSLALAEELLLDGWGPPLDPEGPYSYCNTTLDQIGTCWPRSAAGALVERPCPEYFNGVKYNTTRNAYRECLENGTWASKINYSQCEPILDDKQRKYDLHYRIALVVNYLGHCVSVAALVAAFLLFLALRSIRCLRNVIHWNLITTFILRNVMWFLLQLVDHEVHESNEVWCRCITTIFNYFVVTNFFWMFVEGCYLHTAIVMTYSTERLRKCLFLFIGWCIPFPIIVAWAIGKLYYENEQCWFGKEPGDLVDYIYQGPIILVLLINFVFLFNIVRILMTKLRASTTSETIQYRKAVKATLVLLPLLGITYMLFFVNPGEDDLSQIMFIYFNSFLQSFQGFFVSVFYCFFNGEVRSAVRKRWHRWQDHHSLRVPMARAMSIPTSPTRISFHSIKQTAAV
T1 sequence (P24387 whole entry): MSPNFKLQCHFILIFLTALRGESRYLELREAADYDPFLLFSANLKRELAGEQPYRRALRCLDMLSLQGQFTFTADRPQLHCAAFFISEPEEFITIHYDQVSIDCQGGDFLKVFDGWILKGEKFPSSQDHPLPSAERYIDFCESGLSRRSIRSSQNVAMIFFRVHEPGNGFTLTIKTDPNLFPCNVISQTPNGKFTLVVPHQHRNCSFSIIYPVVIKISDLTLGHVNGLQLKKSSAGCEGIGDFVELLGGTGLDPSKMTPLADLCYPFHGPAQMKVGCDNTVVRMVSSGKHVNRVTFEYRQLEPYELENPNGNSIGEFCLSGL

[2] = biological target: T1, Corticotropin-releasing factor receptor 2/Corticotropin-releasing factor-binding protein; assay: activators of CRF receptor 2 with binding protein – uHTS hits, confirmation (AID 602473); format: functional; details: read-out: EC50_Mean
[3] = biological target: Large T antigen (Simian virus 40, UniProt P03070); format: functional, Betapolyomavirus macacae;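 note: Confirmatory-stage PubChem screen for compounds that inhibit SV40 T antigen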
Sequence of Large T antigen (P03070 whole entry): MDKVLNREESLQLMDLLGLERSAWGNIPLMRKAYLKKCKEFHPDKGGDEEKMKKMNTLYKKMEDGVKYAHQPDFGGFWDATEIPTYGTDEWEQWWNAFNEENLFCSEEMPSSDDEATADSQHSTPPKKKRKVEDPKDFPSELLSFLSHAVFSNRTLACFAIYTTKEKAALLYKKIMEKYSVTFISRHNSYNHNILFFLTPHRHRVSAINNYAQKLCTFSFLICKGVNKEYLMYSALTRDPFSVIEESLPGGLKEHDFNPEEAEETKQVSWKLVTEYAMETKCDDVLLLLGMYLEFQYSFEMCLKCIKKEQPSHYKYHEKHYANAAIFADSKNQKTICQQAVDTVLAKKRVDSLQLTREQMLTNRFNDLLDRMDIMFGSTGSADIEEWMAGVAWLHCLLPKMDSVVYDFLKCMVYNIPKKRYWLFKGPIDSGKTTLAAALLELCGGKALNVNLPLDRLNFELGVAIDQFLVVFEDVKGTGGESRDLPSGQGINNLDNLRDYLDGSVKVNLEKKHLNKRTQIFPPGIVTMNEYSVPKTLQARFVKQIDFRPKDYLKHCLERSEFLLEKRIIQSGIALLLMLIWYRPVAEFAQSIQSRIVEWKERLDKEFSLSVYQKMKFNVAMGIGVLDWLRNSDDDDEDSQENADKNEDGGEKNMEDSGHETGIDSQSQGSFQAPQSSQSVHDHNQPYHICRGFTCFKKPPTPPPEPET

[4] = biological target: T2, Cytochrome P450 1A2 (Homo sapiens, UniProt P05177);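 note: PubChem cytochrome P450 panel assay, CYP1A2 panel member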
T2 sequence (P05177 whole entry): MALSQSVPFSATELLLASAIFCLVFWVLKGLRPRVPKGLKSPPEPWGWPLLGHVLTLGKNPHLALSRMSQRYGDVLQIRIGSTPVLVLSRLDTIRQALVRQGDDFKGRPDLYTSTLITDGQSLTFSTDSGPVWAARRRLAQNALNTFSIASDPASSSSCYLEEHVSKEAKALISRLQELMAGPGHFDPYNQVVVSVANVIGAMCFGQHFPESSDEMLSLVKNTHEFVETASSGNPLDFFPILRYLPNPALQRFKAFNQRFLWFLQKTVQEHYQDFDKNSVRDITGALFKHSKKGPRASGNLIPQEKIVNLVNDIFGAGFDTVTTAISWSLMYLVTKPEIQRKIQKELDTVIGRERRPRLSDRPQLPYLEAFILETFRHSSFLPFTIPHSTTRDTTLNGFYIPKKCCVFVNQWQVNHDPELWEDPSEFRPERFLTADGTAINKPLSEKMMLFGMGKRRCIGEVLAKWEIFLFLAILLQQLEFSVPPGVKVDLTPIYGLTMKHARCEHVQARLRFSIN

[5] = biological target: T3, Heat shock factor protein 1 (Mus musculus, UniProt P38532); assay: HSF1 potentiators in luciferase reporter cells, confirmation, cell-based, NIH3T3, luminescence, dose retest (AID 435004); format: functional;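 note: stress induced by proteasome inhibitor MG132 added 30 min after compound; luciferase reporter driven by HSF1 response element in NIH3T3 cells; actives raise luminescence as potentiators of the MG132 stress response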
T3 sequence (P38532 whole entry): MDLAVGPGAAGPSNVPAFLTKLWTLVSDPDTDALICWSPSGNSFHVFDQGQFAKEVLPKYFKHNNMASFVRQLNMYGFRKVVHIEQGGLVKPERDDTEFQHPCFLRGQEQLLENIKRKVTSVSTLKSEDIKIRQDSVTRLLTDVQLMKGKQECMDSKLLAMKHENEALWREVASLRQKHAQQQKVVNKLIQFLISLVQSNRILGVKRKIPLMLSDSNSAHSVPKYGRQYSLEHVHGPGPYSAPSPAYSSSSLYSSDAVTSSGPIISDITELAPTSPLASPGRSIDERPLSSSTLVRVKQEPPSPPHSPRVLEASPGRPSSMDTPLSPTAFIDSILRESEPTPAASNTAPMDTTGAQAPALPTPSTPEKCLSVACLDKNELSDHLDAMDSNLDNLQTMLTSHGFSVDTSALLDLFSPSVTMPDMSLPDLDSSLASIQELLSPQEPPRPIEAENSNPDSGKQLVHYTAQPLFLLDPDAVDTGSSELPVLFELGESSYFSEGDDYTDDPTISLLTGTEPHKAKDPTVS

[6] = control 3'UTR Renilla luciferase suppression, dose response, counter-screen for Shn3 inhibitor project, cell-based, Clone20-Shn3RL, cherry-picked (AID 624133); format: functional
[7] = Shn3 3'UTR reporter inhibitors, dose response, cell-based, Clone20 osteoblasts, firefly luciferase, cherry-picked (AID 624132); format: functional;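 note: firefly luciferase luminescence from reporter carrying the Shn3 3'UTR in osteoblasts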
[8] = biological target: Cytochrome P450 2C9 (Homo sapiens, UniProt P11712)
Sequence of Cytochrome P450 2C9 (P11712 whole entry): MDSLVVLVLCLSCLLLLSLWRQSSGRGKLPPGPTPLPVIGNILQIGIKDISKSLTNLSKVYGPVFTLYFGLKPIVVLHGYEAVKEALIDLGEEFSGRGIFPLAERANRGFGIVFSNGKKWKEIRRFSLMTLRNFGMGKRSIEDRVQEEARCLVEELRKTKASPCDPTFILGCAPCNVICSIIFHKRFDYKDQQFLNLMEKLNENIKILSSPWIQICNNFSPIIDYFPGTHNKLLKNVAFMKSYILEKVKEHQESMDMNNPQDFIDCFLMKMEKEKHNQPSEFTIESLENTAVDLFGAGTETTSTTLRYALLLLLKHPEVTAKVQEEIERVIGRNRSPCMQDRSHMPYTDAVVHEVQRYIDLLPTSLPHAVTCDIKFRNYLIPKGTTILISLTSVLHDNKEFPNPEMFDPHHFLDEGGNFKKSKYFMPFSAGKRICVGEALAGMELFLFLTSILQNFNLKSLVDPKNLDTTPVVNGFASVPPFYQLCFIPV

[9] = biological target: Cytochrome P450 3A4 (Homo sapiens, UniProt P08684);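 note: CYP3A4 tested as one member of a cytochrome P450 panel screen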
Sequence of Cytochrome P450 3A4 (P08684 whole entry): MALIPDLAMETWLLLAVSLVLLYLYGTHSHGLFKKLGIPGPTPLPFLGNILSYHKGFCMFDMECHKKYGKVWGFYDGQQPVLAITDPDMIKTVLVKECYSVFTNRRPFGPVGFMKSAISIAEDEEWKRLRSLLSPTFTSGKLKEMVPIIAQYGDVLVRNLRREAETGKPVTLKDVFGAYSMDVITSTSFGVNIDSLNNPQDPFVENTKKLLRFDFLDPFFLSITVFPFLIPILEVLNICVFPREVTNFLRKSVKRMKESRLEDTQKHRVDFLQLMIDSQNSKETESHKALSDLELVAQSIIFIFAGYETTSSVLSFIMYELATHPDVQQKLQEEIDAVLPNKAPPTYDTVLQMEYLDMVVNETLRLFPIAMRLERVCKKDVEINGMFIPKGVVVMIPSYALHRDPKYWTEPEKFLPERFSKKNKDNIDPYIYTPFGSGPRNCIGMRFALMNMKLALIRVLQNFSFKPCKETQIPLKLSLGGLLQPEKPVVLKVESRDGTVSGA

[10] = biological target: Cytochrome P450 2C19 (Homo sapiens, UniProt P33261); assay: Cytochrome panel assay with activity outcomes. Panel member name: p450-cyp2c19 Compounds with AC50 equal or less than 10 uM are considered active; format: functional; details: read-out: AC50
Sequence of Cytochrome P450 2C19 (P33261 whole entry): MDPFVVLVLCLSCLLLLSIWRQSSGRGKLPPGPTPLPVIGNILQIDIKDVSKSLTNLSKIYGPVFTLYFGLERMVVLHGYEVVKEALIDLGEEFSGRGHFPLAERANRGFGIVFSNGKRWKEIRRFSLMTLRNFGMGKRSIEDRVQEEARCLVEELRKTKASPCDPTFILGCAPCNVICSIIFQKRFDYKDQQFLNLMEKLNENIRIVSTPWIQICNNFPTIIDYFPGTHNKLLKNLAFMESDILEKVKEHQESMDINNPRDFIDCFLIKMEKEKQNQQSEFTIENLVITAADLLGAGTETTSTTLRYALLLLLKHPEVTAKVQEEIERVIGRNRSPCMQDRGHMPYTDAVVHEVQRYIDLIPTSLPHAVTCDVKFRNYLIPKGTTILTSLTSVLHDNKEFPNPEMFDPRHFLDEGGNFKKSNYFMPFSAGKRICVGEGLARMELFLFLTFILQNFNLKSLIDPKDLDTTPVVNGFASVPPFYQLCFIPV

[11] = biological target: T4, Rac GTPase-activating protein 1 (Homo sapiens, UniProt Q9H0H5); assay: MgcRacGAP GTPase-activating activity inhibitors, confirmation, biochemical, ADP Hunter fluorescence, primary and confirmatory (AID 624330); format: functional
T4 sequence (Q9H0H5 whole entry): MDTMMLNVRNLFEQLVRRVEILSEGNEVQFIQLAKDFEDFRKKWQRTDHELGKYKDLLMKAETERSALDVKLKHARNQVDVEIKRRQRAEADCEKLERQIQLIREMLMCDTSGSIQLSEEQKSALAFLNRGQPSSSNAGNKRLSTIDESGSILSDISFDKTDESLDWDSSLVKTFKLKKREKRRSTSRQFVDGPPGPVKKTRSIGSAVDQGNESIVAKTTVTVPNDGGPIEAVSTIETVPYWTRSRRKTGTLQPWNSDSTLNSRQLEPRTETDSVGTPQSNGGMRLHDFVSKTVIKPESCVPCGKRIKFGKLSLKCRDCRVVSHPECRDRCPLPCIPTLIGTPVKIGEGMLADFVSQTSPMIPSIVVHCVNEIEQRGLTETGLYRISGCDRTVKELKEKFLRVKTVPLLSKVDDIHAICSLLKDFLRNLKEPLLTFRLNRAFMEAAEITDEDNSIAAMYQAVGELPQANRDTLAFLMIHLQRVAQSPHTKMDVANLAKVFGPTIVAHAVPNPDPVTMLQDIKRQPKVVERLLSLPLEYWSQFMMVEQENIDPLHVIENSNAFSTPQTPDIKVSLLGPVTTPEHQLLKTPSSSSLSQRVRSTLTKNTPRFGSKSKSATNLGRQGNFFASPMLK

[12] = biological target: T5, Protein RecA (Mycobacterium tuberculosis, UniProt P9WHJ3); assay: Fluorescence Cell-Free Homogeneous Dose Retest to Identify Inhibitors of RecA-Intein Splicing Activity. [Related pubchem assays (depositor defined):AID2097, AID2223, AID489010, AID492950]; format: functional
T5 sequence (P9WHJ3 whole entry): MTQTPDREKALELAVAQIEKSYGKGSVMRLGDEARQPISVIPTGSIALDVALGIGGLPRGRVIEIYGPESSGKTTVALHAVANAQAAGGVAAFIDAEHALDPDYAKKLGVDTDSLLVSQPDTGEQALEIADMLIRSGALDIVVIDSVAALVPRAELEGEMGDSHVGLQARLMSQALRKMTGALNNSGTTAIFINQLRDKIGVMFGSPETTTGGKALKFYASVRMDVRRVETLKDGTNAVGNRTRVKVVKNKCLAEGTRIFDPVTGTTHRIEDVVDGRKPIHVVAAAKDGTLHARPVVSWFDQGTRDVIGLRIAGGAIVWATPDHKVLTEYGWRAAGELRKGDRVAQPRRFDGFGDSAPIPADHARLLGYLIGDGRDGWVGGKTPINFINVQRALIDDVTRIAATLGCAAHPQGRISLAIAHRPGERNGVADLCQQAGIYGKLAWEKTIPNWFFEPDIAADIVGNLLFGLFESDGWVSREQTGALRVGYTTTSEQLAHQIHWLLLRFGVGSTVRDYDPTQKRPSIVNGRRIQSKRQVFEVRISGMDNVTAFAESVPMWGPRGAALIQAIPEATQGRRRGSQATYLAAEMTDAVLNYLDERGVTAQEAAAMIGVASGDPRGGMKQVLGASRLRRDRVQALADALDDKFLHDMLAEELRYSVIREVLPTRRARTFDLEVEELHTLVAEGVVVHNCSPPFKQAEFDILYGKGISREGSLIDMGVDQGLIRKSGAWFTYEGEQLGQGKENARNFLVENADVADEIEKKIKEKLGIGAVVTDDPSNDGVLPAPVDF

[13] = biological target: T6, Replicative DNA helicase DnaB (Mycobacterium tuberculosis, UniProt P9WMR3); assay: DnaB intein splicing inhibitors, dose response, biochemical, cell-free fluorescence (AID 449749); format: functional
T6 sequence (P9WMR3 whole entry): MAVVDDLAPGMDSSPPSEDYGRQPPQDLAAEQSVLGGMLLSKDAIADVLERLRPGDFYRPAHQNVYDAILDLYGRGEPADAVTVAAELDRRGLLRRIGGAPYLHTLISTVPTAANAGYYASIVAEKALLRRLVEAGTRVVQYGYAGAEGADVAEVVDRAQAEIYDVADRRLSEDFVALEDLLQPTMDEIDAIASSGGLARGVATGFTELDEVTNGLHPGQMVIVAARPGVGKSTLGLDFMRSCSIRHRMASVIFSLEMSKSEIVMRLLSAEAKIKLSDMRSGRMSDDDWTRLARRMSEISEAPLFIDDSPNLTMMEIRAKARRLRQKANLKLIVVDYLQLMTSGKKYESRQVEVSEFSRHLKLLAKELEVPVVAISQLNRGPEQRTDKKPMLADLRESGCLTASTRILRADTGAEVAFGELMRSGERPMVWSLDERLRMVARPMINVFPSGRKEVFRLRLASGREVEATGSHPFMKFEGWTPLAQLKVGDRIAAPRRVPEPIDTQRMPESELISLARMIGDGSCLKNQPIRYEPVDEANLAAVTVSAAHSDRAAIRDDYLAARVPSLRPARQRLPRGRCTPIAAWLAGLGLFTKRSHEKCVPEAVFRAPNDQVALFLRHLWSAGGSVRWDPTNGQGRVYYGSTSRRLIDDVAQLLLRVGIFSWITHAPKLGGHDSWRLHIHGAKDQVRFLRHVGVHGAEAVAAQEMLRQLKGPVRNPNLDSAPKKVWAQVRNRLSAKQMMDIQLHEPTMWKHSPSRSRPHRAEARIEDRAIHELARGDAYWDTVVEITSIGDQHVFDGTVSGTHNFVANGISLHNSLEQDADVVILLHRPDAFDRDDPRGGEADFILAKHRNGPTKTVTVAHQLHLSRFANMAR

Row | Structure (SMILES) | IC50 [1] | EC50 [2] | AC50 [4] | further results
1 | CCc1nnc(NC(=O)CCC(=O)N2CCN(Cc3cc(Cl)ccc3OC)CC2)s1 | > 47.1 µM (inactive) | > 53 µM (inactive) | – | –
2 | COc1cccc(CNC(=O)CN(c2ccc(C(C)C)cc2)S(=O)(=O)c2c(C)noc2C)c1 | > 47.1 µM (inactive) | > 53 µM (inactive) | – | –
3 | Cc1ccc2oc(=O)c(/C=C(\O)C(C)(C)C)nc2c1 | – | – | – | IC50 [3]: 11 µM (active)
4 | CCOC(=O)Cc1csc(NC(=O)c2c(-c3c(Cl)cccc3Cl)noc2C)n1 | – | – | 14.1 µM (inconclusive) | –
5 | Cc1cc(NC(=O)c2nn(C)c(C)c2[N+](=O)[O-])no1 | – | – | 25.1 µM (inconclusive) | –
6 | Fc1ccc(C2c3cccn3CCN2C(S)=Nc2cccc(F)c2)cc1 (configuration not stated) | > 47.1 µM (inactive) | > 53 µM (inactive) | – | –
7 | Cc1nc2ccccc2nc(C)c1=NOCc1ccccc1Cl | > 47.1 µM (inactive) | > 53 µM (inactive) | – | EC50 [5]: > 260 µM (inactive)
8 | COc1ccc(S(=O)(=O)N2CCN(c3cc(-c4ccccc4)nc4ncnn34)CC2)cc1 | – | – | – | AC50 [6]: 1.6 µM (active); AC50 [7]: 3.89 µM (active)
9 | CN(Cc1cc(Cl)cc(Cl)c1O)Cc1c(O)ccc2ccccc12 | – | – | 0.631 µM (inconclusive) | AC50 [8]: 3.16 µM (inconclusive)
10 | COc1ccc(-c2nc3cnc(Nc4ccccc4)nc3n(Cc3cccs3)c2=O)cc1 | – | – | 25.1 µM (inconclusive) | AC50 [8]: 12.6 µM (inconclusive)
11 | CC(C)CCNC(=O)C12CN(Cc3ccccc3)CC1C(c1cccc([N+](=O)[O-])c1)=NO2 (configuration not stated) | – | – | 14.1 µM (inconclusive) | –
12 | COc1ccc(-c2nc3cnc(N4CCOCC4)nc3n(CCC#N)c2=O)cc1 | – | – | 3.16 µM (inconclusive) | –
13 | N#Cc1ccc(S(=O)(=O)N2CCN(C(=O)[C@@H]3CCCN3C(=O)c3cccs3)CC2)cc1 | > 47.1 µM (inactive) | > 53 µM (inactive) | – | –
14 | CCN(CC)c1ccc(NC(=O)CSc2nnc3nc(C)cc(C)n23)cc1 | – | – | – | IC50 [3]: 19.8 µM (active); AC50 [9]: 39.8 µM (inconclusive); AC50 [10]: 17.8 µM (inconclusive)
15 | C[C@@H](CCC(=O)O)C(=O)O | – | – | 6.31 µM (inconclusive) | –
16 | O=C(NCCO)c1nc(C(=O)c2ccc(Cl)cc2)c2ccccc2n1 | > 47.1 µM (inactive) | > 53 µM (inactive) | – | –
17 | CCCNC(=O)c1ccc(CN2CCc3ccccc3C2)cc1 | > 47.1 µM (inactive) | > 53 µM (inactive) | – | –
18 | CC1C/C(=N\NC(=O)c2ccc([N+](=O)[O-])cc2)CC(C)(C)C1 (configuration not stated) | > 47.1 µM (inactive) | > 53 µM (inactive) | – | –
19 | Cn1cccc1/C=N/N1CCN(c2ccccn2)CC1 | – | – | – | IC50 [3]: 5.17 µM (active); IC50 [11]: 27.6 µM (active)
20 | O=C(N/N=C/c1ccc(OC(=O)c2ccco2)cc1)c1ccc[n+]([O-])c1 | – | – | – | IC50 [3]: 55.5 µM (active); EC50 [12]: 24.6 µM (active); AC50 [13]: 24.6 µM (active)
